Data taken from patent US20060014704A1, “Compounds and their preparation for the treatment of Alzheimer's disease by inhibiting beta-amyloid peptide production” (priority 2004, published 2006).

Columns and labels:
[1] = system: Aβ42 production, CHO-APP/ΔE9PS1 cells; assay: Secreted Aβ ELISA in CHO cells co-expressing human APP and FAD mutant PS1 (ΔE9, L286V); type: cell-based, Chinese hamster
Procedure: The effects of Rg5 on the Aβ42 generation were much smaller as compared to Rgk351 and Rk1.
FIG. 10 depicts the effects of native ginsenosides on Aβ42 production. CHO cells stably transfected with human APP695 together with either wild-type (A, CHO-APP/PS1 cells) or ΔE9 FAD mutant (B, CHO-APP/ΔE9PS1 cells) forms of PS1 were used. Cells were treated with the indicated compounds (at 50 μM) for 8 hrs. Levels of secreted Aβ40 and Aβ42 in the medium were determined by ELISA and normalized to intracellular full-length APP. In CHO-APP/PS1 cells, average Aβ amounts in control samples were 320 pM for Aβ40 and 79 pM for Aβ42. The relative levels of Aβ and Aβ42 were normalized to values obtained from non-treated and vehicle-treated cells and are shown as % to control+s.d.). One of three representative experiments are shown.
(§1) CHO-APP/PS1 (A) and CHO-APP/ΔE9PS1 (B) cells were treated with the indicated compounds at 50 μM for 8 hrs and the levels of secreted Aβ40 and Aβ42 were determined as described in FIG. 1. […] The PS1-ΔE9 FAD mutation diminished the Aβ42 response to Rk1 treatment (B).

γ-secretase complex = γ-secretase complex (Homo sapiens, UniProt P49768); settings: partially purified γ-secretase complex; cited from earlier work
cell viability = assay: Cell viability of treated cells; type: cell-based; settings: up to 100 μM, 8 hour treatment
Procedure: as §1
Tables 1-3 Structure of ginsenosides utilized in the study and their effects on Aβ42 generation. They differ at the two or three side chains attached to the common triterpene backbone known as dammarane. The common structure skeleton for each group of ginsenosides is shown in the top panel. Ginsenosides that harbor Aβ42-lowering activity are indicated in the far right column of the tables: Aβ42-lowering activity (“Yes”), no profound effects (“No”), and non-determined (“ND”). Ginsenosides that affected cell viability are indicated as “Cytotoxic.” Abbreviation for carbohydrates are as follows: Glc, D-glucopyranosyl; Ara (pyr), L-arabinopyranosyl; Ara (fur), L-arabinofuranyosyl; Rha, L-rhamnopyranosyl.
Steaming ginseng at high temperature gave rise to additional ginsenosides with enhanced pharmacological activity, including (20S)Rg3, Rk1 and Rg5 (22-25). […] Aβ40 levels were not changed by treatment with any of the ginsenosides tested. The potency of Aβ42-lowering activity was highest with Rk1 and (20S)Rg3. […] These studies provide a structure-activity relationship between the chemical structures of ginsenosides and Aβ42-lowering activity, further providing the basis for designing additional Aβ42-lowering analogues as well as for defining a class of compounds that harbor Aβ42-lowering activity.

C=C(CCC=C(C)C)[C@H]1CC[C@]2(C)[C@@H]1[C@H](O)C[C@@H]1[C@@]3(C)CC[C@H](O[C@@H]4O[C@H](CO)[C@@H](O)[C@H](O)[C@H]4O[C@@H]4O[C@H](CO)[C@@H](O)[C@H](O)[C@H]4O)C(C)(C)[C@@H]3CC[C@]12C [Rk1]
Aβ42-lowering response in PS1 ΔE9 FAD mutant cells compared to PS1 wild-type cells ([1]; 50 μM, 8 hrs, FIG. 11B vs 11A): diminished | Aβ42 levels ([1]; CHO cells co-expressing human APP and FAD mutant presenilin 1 (delta E9, L286V), FIG. 8): reduced the Aβ42 levels | Aβ42 production in a cell-free assay (γ-secretase complex): inhibit the Aβ42 production | cell viability (cell viability): not affected
